Biological target: T1, Taq DNA polymerase (Thermus aquaticus, UniProt P19821)
T1 construct: a truncated version of Taq DNA polymerase (543 amino acids of the C-terminus part); made in house; host or cells: E. coli JM109 (pTTQ vector)
Experiment: Labeled-primer extension assay
Format: biochemical
Conditions: for template-dependent incorporation: template T83, ApG3p and TpC3p together, FIG. 8 lane 2; for incorporation of complementary versus non-complementary dinucleotide: dinucleotide alone, FIG. 7 lanes 6 and 7
Method: The oligonucleotides that were used for this assay are detailed in Table 4 before. The reactions of labeled-primer extension included: polymerization buffer (40 mM Tricine-KOH, pH 8.0; 16 mM KCl; 5 mM MgCl2 and 4 μg BSA), 1 pmol template, 0.2 pmol of the p201 primer (labeled at its 5′ with P^32-γ-ATP using T4 polynucleotide kinase), 1 μM of the indicated dNTP's and 50 μM of the indicated di- or trinucleotide triphosphates in a total volume of 20 μl. The reactions were incubated for 5 minutes at 45° C., then 5 units of Taq DNA polymerase (see Example 3 for details) were added, followed by 20 minutes at 72° C. The reactions were terminated with 15 μl of stop solution (95% formamide, 20 mM EDTA and 0.05% bromophenol blue). Three μl were then separated on Urea-PAGE, and the radiolabeled DNA-bands were detected by phosphoimaging.

T1 sequence (P19821 290-832 limits assumed): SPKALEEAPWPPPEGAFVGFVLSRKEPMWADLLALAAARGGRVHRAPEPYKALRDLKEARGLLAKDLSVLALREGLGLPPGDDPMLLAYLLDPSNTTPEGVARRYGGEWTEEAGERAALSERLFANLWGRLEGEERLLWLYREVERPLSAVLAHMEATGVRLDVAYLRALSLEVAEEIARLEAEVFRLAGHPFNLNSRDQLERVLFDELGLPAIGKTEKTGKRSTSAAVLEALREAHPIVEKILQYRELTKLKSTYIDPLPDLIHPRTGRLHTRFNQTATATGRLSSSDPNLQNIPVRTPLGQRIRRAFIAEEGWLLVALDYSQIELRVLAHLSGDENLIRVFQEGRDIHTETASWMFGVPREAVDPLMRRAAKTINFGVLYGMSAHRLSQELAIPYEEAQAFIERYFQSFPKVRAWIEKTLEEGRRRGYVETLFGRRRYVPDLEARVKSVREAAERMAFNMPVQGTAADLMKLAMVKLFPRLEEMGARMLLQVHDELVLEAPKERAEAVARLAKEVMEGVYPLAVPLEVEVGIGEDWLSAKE

| Compound | template-dependent incorporation | incorporation of complementary versus non-complementary dinucleotide (template T24) | other results |
| --- | --- | --- | --- |
| thymidylyl-3′-5′-thymidylyl-3′-5′-thymidine (DNA TTT; DNA, phosphodiester; triphosphate form of the trinucleotide, triphosphate end not given here, further chemistry not fully specified) [TpTpT3p] | – | – | template-dependent incorporation in a mix with dCTP and dATP (template T24, FIG. 7 lanes 4 and 5): utilized |
| Nc1nc2c(ncn2[C@H]2C[C@H](O)[C@@H](COP(=O)(O)O[C@H]3C[C@H](n4cnc5c(N)ncnc54)O[C@@H]3CO)O2)c(=O)[nH]1 [ApG3p, 2′-deoxyadenylyl(3′-5′)-2′-deoxyguanosine] | template-dependent incorporation | – | – |
| Nc1ccn([C@H]2C[C@H](OP(=O)(O)OC[C@H]3O[C@@H](n4cnc5c(N)ncnc54)C[C@@H]3O)[C@@H](CO)O2)c(=O)n1 [CpA3p, 2′-deoxycytidylyl(3′-5′)-2′-deoxyadenosine] | – | seems to be incorporated | template-dependent incorporation onto 3′ end of labeled primer p201 (templates T80 and T81, 50 μM dinucleotide triphosphates, FIG. 6 lanes 3-7): correct incorporation; efficiency of incorporation compared to the natural dNTP's (templates T80 and T81, FIG. 6 lanes 3-7 vs lane 2): lower efficiency |
| Cc1cn([C@H]2C[C@H](OP(=O)(O)OC[C@H]3O[C@@H](n4ccc(N)nc4=O)C[C@@H]3O)[C@@H](CO)O2)c(=O)[nH]c1=O [TpC3p, thymidylyl(3′-5′)-2′-deoxycytidine] | template-dependent incorporation | – | – |
| Nc1ccn([C@H]2C[C@H](OP(=O)(O)OC[C@H]3O[C@@H](n4ccc(N)nc4=O)C[C@@H]3O)[C@@H](CO)O2)c(=O)n1 [CpC3p, 2′-deoxycytidylyl(3′-5′)-2′-deoxycytidine] | – | Only the complementary dinucleotide (CpA3p) seems to be incorporated | – |
